Where a name gives a salt, the structure may show the parent alone.
Experiments:
[1] = target: T1, L-type calcium channels in A10 cells (Rattus norvegicus, UniProt P22002); experiment: L-type Ca2+ channel blocking potency in A10 cells (FLIPR); assay type: cell-based; settings: read-out: FLPA10 IC50
T1 construct: which endogenously expresses L-type calcium channels; host or cells: A10 rat embryonic thoracic aorta smooth muscle cells
Method: Measurement of L-type Ca^2+ Channel Blocking Potencies of Compounds in A10 Cells
Calcium flux through voltage-sensitive calcium channels was assessed by time-resolved monitoring of the fluorescence of pre-loaded calcium-sensitive dyes using FLIPR, a fluorescent image plate reader (Molecular Devices Co.). The A10 smooth muscle cell line derived from embryonic thoracic aorta of the DBIX rat (ATCC, CRL-1476) which endogenously expresses L-type calcium channels. The growth media for A10 cells was Ham's F12/DME high glucose (Irvine Scientific, 9052), supplemented with 20% fetal bovine serum (HyClone Labs, A-1115-L), and 1% each of L-glutamine and antibiotic-antimycotic (same source as above).
Cells were grown to confluency and replated on black-sided 96-well plates (Costar, 3603) for use in FLIPR. Two days after replating, growth media was removed and cells were loaded at 37° C. with 100 μL media containing 1 μM Oregon Green 488 Bapta-1 dye (Molecular Probes, O-6807) for 1 to 3 hours. The dye-containing media was then washed away with buffer (composition in mM: 1.25 CaCl2, 1.2 MgSO4, 11 glucose, 10 HEPES, 3.0 KCl, 137.0 NaCl, pH 7.4 with Tris base) in a Denley Cellwash (Labsystems, CW018B). The residual buffer volume was adjusted to 50 μL. A 5 minute drug-pre-incubation period at 35° C. was initiated when 50 μL of drug-containing buffer was pipetted into the cell plate with the 96-well pipettor integrated in the FLIPR apparatus. Fluorescent counts were monitored at 20 second intervals for 360 seconds, beginning 60 seconds prior to the delivery of drug-containing buffer. Following drug addition, 100 μL aliquots of a high K^+, depolarizing stimulus (composition in mM: 1.25 CaCl2, 1.2 MgSO4, 11 glucose, 10 HEPES, 140.0 KCl, pH 7.4 with Tris base) were added to each well, and fluorescence was monitored at 1 second intervals for 120 seconds beginning 10 seconds prior to the stimulus addition. CCD camera exposure time was 0.4 seconds, laser excitation was at 488 nm with a power of 0.2-0.5W, and a 510 to 560 nm bandpass interference filter preceded the camera.
Data was analyzed as a summation of fluorescent counts above basal during the stimulation period (an approximation of area under the curve), after normalizing the data with a spatial uniformity correction (for variations in laser illumination and cell density) and a negative control correction (zero calcium increase defined as the fluorescence reading in the presence of saturating pharmacologic block of the respective calcium channel). Drug effects were expressed as percent inhibition of fluorescence from an average of 8 K^+-stimulated wells which were pre-treated in the drug incubation period with buffer only. In the A10 cells, the pharmacologic agent used to define zero calcium influx was nitrendipine (RBI, N-144) at a final concentration of 1.0×10^−6 M.

[2] = target: T2, N-type calcium channels in IMR-32 cells (Homo sapiens, UniProt Q00975); experiment: N-type Ca2+ channel blocking potency in IMR-32 cells using Indo-1; assay type: cell-based; settings: for IC50: IMR-32 cells, estimated from two data points, read-out: IMR32 IC50 (estimated IC50 values based on two data points); for inhibition at 1 µM / inhibition at 10 µM: IMR-32, IMR-32 cells; for inhibition at 1 µM: read-out: IMR32 % blockage at 1 μM; for inhibition at 10 µM: read-out: IMR32 % blockage at 10 μM
T2 construct: host or cells: IMR-32 cells differentiated with dibutyryl cAMP and bromodeoxyuridine
Method: Measurement of N-type Ca^2+ Channel Blocking Potencies of Compounds in IMR-32 Cells Using the Fluorescent Ca^2+ Indicator Indo-1
IMR-32 cells are a human tumoral cell line of neural origin. […] Calcium flux into these cells may be induced by stimulation with elevated potassium concentrations. The L-channel component of calcium flux may be blocked by adding 5 μM nitrendipine. The remaining component of calcium entry into the IMR-32 cells is due to calcium flux through N-type calcium channels. Intracellular calcium concentrations are measured using the fluorescent calcium indicator Indo-1. The effect of drug concentration on calcium uptake is studied.
The IMR-32 cell line was obtained from the American Type Culture Collection (Rockville, Md.). Cells were grown in Eagle's Minimum Essential Medium with Earle's salts supplemented with 10% fetal bovine serum, 2 mM L-Gln and antibiotic/antimycotic mixture (Gibco). At approximately 80% confluency, differentiation was induced by the addition of 1 mM dibutyryl cAMP and 2.5 μM bromodeoxyuridine to the medium. After 7 to 13 days of differentiation, cells were detached using 0.5 mM EDTA and loaded with 5 μM Indo-1 acetoxymethyl ester (Molecular Probes, Eugene, Oreg.) at 30° C. for 45 minutes. Loaded cells were washed twice, resuspended (˜10^7 cells/mL) in assay buffer (10 mM HEPES/Tris pH 7.4 in Hank's Balanced Salt Solution without bicarbonate or phenol red containing 0.5% bovine serum albumin) and kept on ice until use. Fluorescence measurements were carried out in a Photon Technology International (PTI, South Brunswick, N.J.) Model RF-F3004 spectrofluorometer with dual emission monochromators using excitation at 350 nm and emission at 400 and 490 nm. The instrument was equipped with a thermostated cuvette holder with stirring capabilities as well as with a computer-controlled pump which allowed for reagent addition during measurement. Instrument control and data collection was done by PTI's OSCAR software running on an IBM compatible computer. Different concentrations of the test compounds (60 μL in dimethyl sulfoxide) were added to 5.94 mL of assay buffer containing approximately 3×10^6 loaded cells, and 5 μM Nitrendipine (in 30 μL EtOH) to block L-type Ca^2+ channels. Samples were incubated for 10 minutes at 30° C. and the aliquot into three 10×10 mm disposable acrylic cuvettes. Emission signals at 400 and 490 nm were acquired from each cuvette at 30° C. for 50 seconds. At 20 seconds after the start of reading, cells were depolarized by the addition of 160 μL of stimulation solution (1 M KCl, 68 mM CaCl2) to the cuvette via the computer-controlled pump. Ratio of dual emission signals (400/490 nm), which is proportional to intracellular Ca^2+ concentration, was plotted against time, and the difference between maximal response after stimulation and basal value (before stimulation) was determined. Values obtained in this way were plotted as a function of drug concentration. IC50 values of test compounds were calculated by fitting a four-parameter logistic function to the data using the least squares method.

T1 sequence (P22002 whole entry): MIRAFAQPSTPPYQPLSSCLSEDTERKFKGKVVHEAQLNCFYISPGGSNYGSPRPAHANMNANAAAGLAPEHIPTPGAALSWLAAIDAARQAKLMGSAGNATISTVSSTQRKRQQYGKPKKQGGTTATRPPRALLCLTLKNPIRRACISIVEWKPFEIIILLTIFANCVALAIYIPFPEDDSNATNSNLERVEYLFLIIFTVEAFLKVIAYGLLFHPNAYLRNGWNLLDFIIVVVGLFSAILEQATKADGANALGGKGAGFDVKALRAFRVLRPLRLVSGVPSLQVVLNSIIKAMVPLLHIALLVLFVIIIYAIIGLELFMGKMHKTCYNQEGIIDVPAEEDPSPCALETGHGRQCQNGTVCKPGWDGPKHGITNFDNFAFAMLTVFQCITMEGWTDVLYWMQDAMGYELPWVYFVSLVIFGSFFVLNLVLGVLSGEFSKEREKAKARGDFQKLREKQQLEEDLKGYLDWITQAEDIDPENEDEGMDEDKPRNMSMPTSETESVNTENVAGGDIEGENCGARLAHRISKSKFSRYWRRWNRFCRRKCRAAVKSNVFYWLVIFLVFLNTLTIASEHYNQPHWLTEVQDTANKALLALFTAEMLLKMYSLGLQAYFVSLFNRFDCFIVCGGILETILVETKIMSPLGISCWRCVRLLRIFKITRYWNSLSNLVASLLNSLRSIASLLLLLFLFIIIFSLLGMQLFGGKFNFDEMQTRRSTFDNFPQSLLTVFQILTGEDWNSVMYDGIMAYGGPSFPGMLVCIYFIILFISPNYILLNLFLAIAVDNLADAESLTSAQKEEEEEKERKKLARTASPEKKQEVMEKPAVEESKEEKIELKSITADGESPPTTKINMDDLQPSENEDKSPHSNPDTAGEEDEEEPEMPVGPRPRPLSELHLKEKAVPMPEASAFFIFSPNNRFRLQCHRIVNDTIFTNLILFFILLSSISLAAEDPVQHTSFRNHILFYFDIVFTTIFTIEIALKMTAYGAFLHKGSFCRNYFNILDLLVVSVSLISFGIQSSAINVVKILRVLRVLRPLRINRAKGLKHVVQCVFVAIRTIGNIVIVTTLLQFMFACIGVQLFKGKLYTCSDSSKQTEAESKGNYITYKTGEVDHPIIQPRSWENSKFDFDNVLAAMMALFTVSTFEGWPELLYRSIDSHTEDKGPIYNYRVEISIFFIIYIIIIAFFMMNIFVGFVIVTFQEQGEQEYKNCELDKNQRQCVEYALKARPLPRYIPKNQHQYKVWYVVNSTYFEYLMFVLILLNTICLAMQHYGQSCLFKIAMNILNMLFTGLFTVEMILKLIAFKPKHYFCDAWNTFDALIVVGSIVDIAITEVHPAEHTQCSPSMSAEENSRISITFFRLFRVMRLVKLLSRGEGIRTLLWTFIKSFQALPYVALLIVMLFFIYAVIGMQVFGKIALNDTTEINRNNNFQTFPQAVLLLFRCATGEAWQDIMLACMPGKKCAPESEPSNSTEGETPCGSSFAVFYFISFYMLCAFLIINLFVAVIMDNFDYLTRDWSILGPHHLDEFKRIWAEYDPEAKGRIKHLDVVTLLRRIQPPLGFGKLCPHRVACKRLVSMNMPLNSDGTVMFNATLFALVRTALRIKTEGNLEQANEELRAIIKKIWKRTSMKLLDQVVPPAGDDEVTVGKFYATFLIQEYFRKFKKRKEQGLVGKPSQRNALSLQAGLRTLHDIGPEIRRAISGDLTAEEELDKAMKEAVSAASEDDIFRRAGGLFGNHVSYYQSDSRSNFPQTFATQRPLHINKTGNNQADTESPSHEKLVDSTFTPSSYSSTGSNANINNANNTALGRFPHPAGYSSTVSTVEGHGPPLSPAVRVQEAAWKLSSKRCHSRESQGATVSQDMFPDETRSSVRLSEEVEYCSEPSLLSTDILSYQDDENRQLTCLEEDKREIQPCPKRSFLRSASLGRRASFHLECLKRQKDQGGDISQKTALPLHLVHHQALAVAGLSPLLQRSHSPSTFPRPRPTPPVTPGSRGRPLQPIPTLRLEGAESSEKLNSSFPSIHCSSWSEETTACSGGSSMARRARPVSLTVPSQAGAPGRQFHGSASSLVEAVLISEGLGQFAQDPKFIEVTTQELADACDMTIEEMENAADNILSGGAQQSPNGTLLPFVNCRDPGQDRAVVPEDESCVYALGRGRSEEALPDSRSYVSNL
T1 sequence (P54290 25-944 partner limits assumed): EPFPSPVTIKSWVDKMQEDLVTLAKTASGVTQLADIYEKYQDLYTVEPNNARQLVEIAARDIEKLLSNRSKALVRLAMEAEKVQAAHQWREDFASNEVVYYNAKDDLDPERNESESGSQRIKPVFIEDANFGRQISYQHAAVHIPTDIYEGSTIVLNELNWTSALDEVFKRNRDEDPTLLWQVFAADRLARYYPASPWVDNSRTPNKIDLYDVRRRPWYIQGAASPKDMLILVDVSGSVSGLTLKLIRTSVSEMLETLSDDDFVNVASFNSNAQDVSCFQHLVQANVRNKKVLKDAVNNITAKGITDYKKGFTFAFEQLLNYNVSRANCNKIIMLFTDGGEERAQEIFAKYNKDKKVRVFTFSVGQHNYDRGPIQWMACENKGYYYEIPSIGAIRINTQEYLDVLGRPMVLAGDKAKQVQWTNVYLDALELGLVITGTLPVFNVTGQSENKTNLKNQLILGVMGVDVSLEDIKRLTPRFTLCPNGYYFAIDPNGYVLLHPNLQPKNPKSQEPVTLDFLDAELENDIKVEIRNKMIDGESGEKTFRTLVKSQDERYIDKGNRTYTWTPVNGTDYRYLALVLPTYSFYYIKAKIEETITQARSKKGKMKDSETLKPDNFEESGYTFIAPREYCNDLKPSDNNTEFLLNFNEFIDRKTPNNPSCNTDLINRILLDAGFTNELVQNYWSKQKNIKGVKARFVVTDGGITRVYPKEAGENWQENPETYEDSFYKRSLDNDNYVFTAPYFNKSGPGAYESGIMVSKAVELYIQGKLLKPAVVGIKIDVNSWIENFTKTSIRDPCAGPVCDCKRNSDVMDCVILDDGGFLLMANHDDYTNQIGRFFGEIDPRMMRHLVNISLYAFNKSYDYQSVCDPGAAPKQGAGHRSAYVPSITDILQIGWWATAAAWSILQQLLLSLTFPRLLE
T1 sequence (P54290 945-1091 partner limits assumed): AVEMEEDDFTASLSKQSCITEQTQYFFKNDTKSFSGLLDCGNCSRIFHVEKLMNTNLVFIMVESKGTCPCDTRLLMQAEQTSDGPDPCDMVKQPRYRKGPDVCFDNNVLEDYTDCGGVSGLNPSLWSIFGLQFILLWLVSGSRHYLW
T1 sequence (P54287 whole entry partner): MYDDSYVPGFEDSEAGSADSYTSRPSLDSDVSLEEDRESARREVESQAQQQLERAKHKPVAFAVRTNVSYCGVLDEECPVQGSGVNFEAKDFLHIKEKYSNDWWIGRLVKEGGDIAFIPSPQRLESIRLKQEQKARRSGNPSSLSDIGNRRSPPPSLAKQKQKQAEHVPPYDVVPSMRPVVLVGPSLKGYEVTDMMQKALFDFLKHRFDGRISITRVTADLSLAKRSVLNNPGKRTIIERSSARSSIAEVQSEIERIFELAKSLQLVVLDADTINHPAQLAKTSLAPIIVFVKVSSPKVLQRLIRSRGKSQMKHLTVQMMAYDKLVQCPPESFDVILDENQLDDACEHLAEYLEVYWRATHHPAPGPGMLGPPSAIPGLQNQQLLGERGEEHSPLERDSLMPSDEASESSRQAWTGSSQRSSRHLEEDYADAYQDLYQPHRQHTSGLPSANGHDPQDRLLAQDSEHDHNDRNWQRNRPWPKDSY

Row | IC50 [1] [nM] | IC50 [2] [nM] | inhibition at 1 µM [2] [%] | inhibition at 10 µM [2] [%] | SMILES
1 | 290 |  |  |  | CC(C)C[C@@H](NC(=O)N1CCCCCC1)C(=O)NCCCC(c1ccc(F)cc1)c1ccc(F)cc1 [Example 2, (R)-Azepane-1-carboxylic acid {1-[4,4-bis-(4-fluoro-phenyl)-butylcarbamoyl]-3-methyl-butyl}-amide]
2 | 570 | 2000 |  |  | CC(C)C[C@H](NC1CCOCC1)C(=O)NCCCC(c1ccc(F)cc1)c1ccc(F)cc1 [Example 18, (S)-4-Methyl-2-(tetrahydro-pyran-4-ylamino)-pentanoic acid [4,4-bis-(4-fluoro-phenyl)-butyl]-amide]
3 | 660 | 1100 |  |  | CC(C)C[C@H](NC(C)C)C(=O)NCCCC(c1ccc(F)cc1)c1ccc(F)cc1 [Example 19, (S)-2-Isopropylamino-4-methyl-pentanoic acid [4,4-bis-(4-fluoro-phenyl)-butyl]-amide monohydrochloride]
4 | 470 |  | 25 | 92 | CC(C)C[C@@H](C(=O)NCCCC(c1ccc(F)cc1)c1ccc(F)cc1)N(C)C [Example 20, (S)-2-Dimethylamino-4-methyl-pentanoic acid [4,4-bis-(4-fluoro-phenyl)-butyl]-amide monohydrochloride]
5 | 270 |  | 71 | 94 | CC(C)C[C@@H](C(=O)NCCCC(c1ccc(F)cc1)c1ccc(F)cc1)N(C)C1CCCCC1 [Example 21, (S)-2-(Cyclohexyl-methyl-amino)-4-methyl-pentanoic acid [4,4-bis-(4-fluoro-phenyl)-butyl]-amide monohydrochloride]
6 | 130 |  | 35 | 89 | CC(C)C[C@@H](C(=O)NCCCC(c1ccc(F)cc1)c1ccc(F)cc1)N1CCOCC1 [Example 23, (S)-4-Methyl-2-morpholin-4-yl-pentanoic acid [4,4-bis-(4-fluoro-phenyl)-butyl]-amide monohydrochloride]
7 | 800 | 990 |  |  | CC(C)C[C@@H](C(=O)NCCC(c1ccccc1)c1ccccc1)N(C)C1CCCCC1 [Example 25, (S)-2-(Cyclohexyl-methyl-amino)-4-methyl-pentanoic acid (3,3-diphenyl-propyl)-amide monohydrochloride]
8 | 450 | 1200 |  |  | CC(C)C[C@@H](C(=O)NCCCC(c1ccc(F)cc1)c1ccc(F)cc1)N(C)C1CCOCC1 [Example 27, (S)-4-Methyl-2-[methyl-(tetrahydro-pyran-4-yl)-amino]-pentanoic acid [4,4-bis-(4-fluoro-phenyl)-butyl]-amide monohydrochloride]
9 | 630 | 1890 |  |  | CC(C)C[C@@H](NC(=O)N1CCCCCC1)C(=O)N1CCN(C(c2ccc(F)cc2)c2ccc(F)cc2)CC1 [Example 34, (R)-Azepane-1-carboxylic acid {1-(4-[bis-(4-fluoro-phenyl)-methyl]-piperazine-1-carbonyl}-3-methyl-butyl)-amide]
10 | 360 | 500 |  |  | CC(C)C[C@@H](CN1CCN(C(c2ccc(F)cc2)c2ccc(F)cc2)CC1)NC(=O)OC(C)(C)C [Example 35, (S)-(1-{4-[Bis-(4-fluoro-phenyl)-methyl]-piperazin-1-ylmethyl}-3-methyl-butyl)-carbamic acid tert-butyl ester]
11 | 1400 | 2000 |  |  | CC(C)C[C@@H](C(=O)N1CCN(C(c2ccc(F)cc2)c2ccc(F)cc2)CC1)N1CCCCC1 [Example 37, (S)-1-{4-[Bis-(4-fluoro-phenyl)-methyl]-piperazin-1-yl}-4-methyl-2-piperidin-1-yl-pentan-1-one]
12 | 1000 | 3200 |  |  | CC(C)C[C@H](NC(C)C)C(=O)N1CCN(C(c2ccc(F)cc2)c2ccc(F)cc2)CC1 [Example 49, (S)-1-{4-[Bis-(4-fluoro-phenyl)-methyl]-piperazin-1-yl}-2-isopropylamino-4-methyl-pentan-1-one monohydrochloride]
13 | 420 |  |  | 99 | CC(C)C[C@H](NCc1ccccc1)C(=O)N1CCN(C(c2ccc(F)cc2)c2ccc(F)cc2)CC1 [Example 62, (S)-2-Benzylamino-1-{4-[bis-(4-fluoro-phenyl)-methyl]-piperazin-1-yl}-4-methyl-pentan-1-one]
14 | 1100 |  |  |  | CC(C)C[C@H](NC1CCOCC1)C(=O)N1CCN(C(c2ccc(F)cc2)c2ccc(F)cc2)CC1 [Example 63, (S)-1-{4-[Bis-(4-fluoro-phenyl)-methyl]-piperazin-1-yl}-4-methyl-2-(tetrahydro-pyran-4-ylamino)-pentan-1-one]
15 | 680 |  |  | 83 | CC(C)N[C@H](C(=O)NCCCC(c1ccc(F)cc1)c1ccc(F)cc1)C(C)C [Example 65, (S)-N-[4,4-Bis-(4-fluoro-phenyl)-butyl]-2-isopropylamino-3-methyl-butyramide]
16 | 510 |  | 34 | 94 | CCC(C)N[C@H](C(=O)NCCCC(c1ccc(F)cc1)c1ccc(F)cc1)C(C)C (stereo partly drawn) [Example 66, (S)-N-[4,4-Bis-(4-fluoro-phenyl)-butyl]-2-sec-butylamino-3-methyl-butyramide]
17 | 530 |  |  | 97 | CC(C)C[C@@H](C(=O)NCCCC(c1ccc(F)cc1)c1ccc(F)cc1)N(C)C(C)C [Example 68, (S)-2-(Isopropyl-methyl-amino)-4-methyl-pentanoic acid [4,4-bis-(4-fluoro-phenyl)-butyl]-amide]
18 | 400 |  | 34 | 99 | CC(C)[C@@H](C(=O)NCCCC(c1ccc(F)cc1)c1ccc(F)cc1)N(C)C1CCCCC1 [Example 69, (S)-N-[4,4-Bis-(4-fluoro-phenyl)-butyl]-2-(cyclohexyl-methyl-amino)-3-methyl-butyramide]
